Results published in the supplement of paper PMC10307832.

Key:
Assay in all cases: relative viability (nuclei count vs DMSO), 5 days (fraction); higher = more cells survive
[1] = compound: CN(C)C/C=C/C(=O)Nc1cc2c(Nc3ccc(F)c(Cl)c3)ncnc2cc1O[C@H]1CCOC1 [Afatinib] + O=C(CCCCCCC(=O)Nc1ccccc1)NO [Vorinostat] (partner 1 µM)
Summary of the method: (§1)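 A single step with final 0.05% Triton X-100, 1% formaldehyde and 1 ug/ml Hoechst fixed the cells and stained nuclei 5 days after treatment. Lung cancer cell lines in 1536-well plates had been treated by pin tool the day after seeding with one drug alone or a fixed anchor-drug dose plus five library-drug doses (not always all listed) in √10 steps, and nuclei were counted on 4× images. Relative viability is the ratio of nuclei in treated wells to nuclei in vehicle wells, taken as the median of duplicate plates.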

[2] = compound: CN(C)C/C=C/C(=O)Nc1cc2c(Nc3ccc(F)c(Cl)c3)ncnc2cc1O[C@H]1CCOC1 [Afatinib] + Cc1nc(Nc2ncc(C(=O)Nc3c(C)cccc3Cl)s2)cc(N2CCN(CCO)CC2)n1 [Dasatinib] (partner 0.075 µM)
Summary of the method: as §1

[3] = compound: CN(C)C/C=C/C(=O)Nc1cc2c(Nc3ccc(F)c(Cl)c3)ncnc2cc1O[C@H]1CCOC1 [Afatinib] + CS(=O)(=O)N1CCN(Cc2cc3nc(-c4cccc5[nH]ncc45)nc(N4CCOCC4)c3s2)CC1 [Pictilisib] (partner 1 µM)
Summary of the method: as §1

[4] = compound: CN(C)C/C=C/C(=O)Nc1cc2c(Nc3ccc(F)c(Cl)c3)ncnc2cc1O[C@H]1CCOC1 [Afatinib] + C[C@@H](Oc1cc(-c2cnn(C3CCNCC3)c2)cnc1N)c1c(Cl)ccc(F)c1Cl [Crizotinib] (partner 1 µM)
Summary of the method: as §1

Row | Cell Line | relative viability ([1]; first compound 0.005 µM) | relative viability ([1]; first compound 0.01581 µM) | relative viability ([1]; first compound 0.05 µM) | relative viability ([1]; first compound 0.1581 µM) | relative viability ([1]; first compound 0.5 µM) | relative viability ([2]; first compound 0.005 µM) | relative viability ([2]; first compound 0.01581 µM) | relative viability ([2]; first compound 0.05 µM) | relative viability ([2]; first compound 0.1581 µM) | relative viability ([2]; first compound 0.5 µM) | relative viability ([3]; first compound 0.005 µM) | relative viability ([3]; first compound 0.01581 µM) | relative viability ([3]; first compound 0.05 µM) | relative viability ([3]; first compound 0.1581 µM) | relative viability ([3]; first compound 0.5 µM) | relative viability ([4]; first compound 0.005 µM) | relative viability ([4]; first compound 0.01581 µM) | relative viability ([4]; first compound 0.05 µM) | relative viability ([4]; first compound 0.1581 µM) | relative viability ([4]; first compound 0.5 µM)
1 | NCI-H2009 | 0.772 | 0.775 | 0.812 | 0.701 | 0.755 | 0.306 | 0.295 | 0.341 | 0.259 | 0.285 | 0.875 | 0.822 | 0.95 | 0.786 | 0.74 | 1.07 | 0.977 | 1.12 | 1.04 | 1.04
2 | NCI-H2023 | 0.445 | 0.566 | 0.592 | 0.556 | 0.549 | 0.61 | 0.498 | 0.492 | 0.445 | 0.546 | 0.248 | 0.233 | 0.261 | 0.216 | 0.239 | 0.576 | 0.487 | 0.407 | 0.402 | 0.487
3 | NCI-H2085 | 0.746 | 0.684 | 0.66 | 0.623 | 0.682 | 0.238 | 0.263 | 0.22 | 0.199 | 0.212 | 0.486 | 0.438 | 0.459 | 0.494 | 0.435 | 0.925 | 0.657 | 0.763 | 0.66 | 0.778
4 | NCI-H2087 | 0.658 | 0.625 | 0.968 | 0.91 | 0.592 | 0.992 | 0.804 | 0.825 | 0.852 | 0.715 | 1.12 | 0.907 | 0.86 | 0.904 | 0.72 | 0.985 | 0.933 | 0.93 | 0.845 | 1.02
